From ChEMBL document CHEMBL1201862, “PubChem BioAssay data set” (2004)
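Test compounds were applied to cells in 96-well plates for 48 hours at 5 doses. Here, GI50 denotes the concentration required for 50% inhibition of growth.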 The source made the active and inactive calls. No stated cut-off is given here; in the data, active = GI50 up to about 1.1 µM and inactive = higher.

What was measured:
Assay in all cases: NCI anticancer screen, dose series, 48 h
[1] = test system: BT-549
[2] = test system: MCF7
[3] = test system: MDA-N
[4] = test system: DMS-273
[5] = test system: M19-MEL
[6] = test system: RXF 631
[7] = test system: DLD-1
[8] = test system: DMS-114
[9] = test system: XF498

Measured: GI50

Nc1ccn(C2CCC(CO)O2)c(=S)n1 (centres undefined)
inactive: [1] > 100 µM | [2] > 100 µM | [3] > 100 µM

O=C1c2ccccc2C(=O)N1CCCOCc1cnc(O)nc1O
inactive: [4] > 100 µM | [5] > 100 µM | [6] > 100 µM | [7] > 100 µM | [8] > 100 µM | [9] > 100 µM

O=C1NNC(=O)c2ccccc2SSc2ccccc2C(=O)NNC(=O)c2ccccc2SSc2ccccc21
inactive: [1] 11.5 µM | [2] 6.05 µM | [3] 32 µM

O=C(O)c1nnsc1-c1csnn1
inactive: [1] > 100 µM | [2] > 100 µM | [3] > 100 µM

CCOC(=O)c1ccc(/N=N\c2ccc(N(CCC#N)CCC#N)cc2C)cc1
inactive: [4] > 100 µM | [5] > 100 µM | [6] > 100 µM | [7] > 100 µM | [8] > 100 µM

C[C@H]1C(=O)C2=C[C@H]1CCC(=O)[C@]1(C)CCCC(C)(C)[C@H]1C[C@H]2O
inactive: [1] 28.2 µM | [2] 13.7 µM | [3] 31.6 µM

CC1=NN(c2ccccc2)C(=O)C1/N=N/c1ccc(Br)c(C)c1 (centres undefined)
inactive: [4] > 100 µM | [5] > 100 µM | [6] > 100 µM | [7] > 100 µM | [8] > 100 µM | [9] > 100 µM

CCOC(=O)c1cnc2c(ccc3ncccc32)c1OCC
inactive: [4] > 100 µM | [5] > 100 µM | [6] 84.5 µM | [7] 77.3 µM | [8] > 100 µM

Cc1cc([N+](=O)[O-])c(C)c2c1[nH]c1ccc(Cl)cc12
inactive: [4] 63.1 µM | [5] > 100 µM | [7] > 10 µM | [8] > 100 µM | [9] > 100 µM

CN(Cc1ccccc1)/C(=N\C#N)N(Cc1ccccc1)Cc1ccccc1
inactive: [4] 20.9 µM | [5] 22.8 µM | [7] 21 µM | [1] 19.3 µM | [2] 22.3 µM | [3] 17.9 µM

O=C1NC2C(CCO)CC=C[C@H]2c2cc3c(cc21)OCO3 (some centres undefined)
inactive: [4] > 100 µM | [5] > 100 µM | [7] > 100 µM | [8] > 100 µM

COC(=O)C(C(=O)OC)C1CCCC(=O)C1 (centres undefined)
inactive: [4] > 100 µM | [5] > 100 µM | [7] > 100 µM | [9] > 100 µM

NC1=NC2=C(CCCC2)C(c2cccs2)S1 (centres undefined)
inactive: [4] > 100 µM | [5] > 100 µM | [8] 42.8 µM | [9] > 100 µM

C/C(=N/O)C1CC=C(S(=O)(=O)c2ccccc2)C1 (centres undefined)
inactive: [4] > 100 µM | [5] > 100 µM | [7] > 100 µM

CCCC1C(=O)CCc2c(OC)ccc(OC)c21 (centres undefined)
inactive: [4] > 100 µM | [5] > 100 µM | [7] > 100 µM | [8] 48.2 µM | [9] > 100 µM

CC(C)(C)C1CCC2c3c([nH]c4ncccc34)C3C(=O)N(c4ccccc4)C(=O)C3C2C1 (centres undefined)
inactive: [4] > 100 µM | [5] > 100 µM | [7] > 100 µM | [8] 80 µM | [9] > 100 µM

Cc1cc(C)nc(NS(=O)(=O)c2ccc(NC(=O)c3cccc4c(=O)c5ccccc5[nH]c34)cc2)n1
inactive: [4] 22.1 µM | [6] 60 µM | [7] 20.7 µM | [8] 18.4 µM | [9] 13.5 µM

O=C1C2=C(CC3C(C2)C3(Br)Br)C(=O)C2=C1CC1C(C2)C1(Br)Br (centres undefined)
inactive: [4] > 100 µM | [5] 52.8 µM | [6] > 100 µM | [7] > 100 µM | [9] > 100 µM

CSc1ccc(-c2cn3ccsc3n2)c(O)c1
inactive: [4] 32.8 µM | [6] > 70.8 µM | [7] 40.4 µM | [8] 26.1 µM | [9] 30.2 µM

O=C(NCCCN1CCN(CCCNC(=O)Nc2cc(Cl)ccc2Cl)CC1)Nc1cc(Cl)ccc1Cl
inactive: [4] 22.3 µM | [7] > 100 µM | [8] 38.5 µM | [9] > 100 µM

CCOC(=O)c1ccc(NC(=O)SCCC(=O)O)cc1
inactive: [4] > 100 µM | [7] > 100 µM | [8] > 100 µM

NC1=NCCC1(c1ccccc1)c1ccccn1 (centres undefined)
inactive: [4] > 100 µM | [5] > 100 µM | [8] > 100 µM | [9] > 100 µM

O=c1c(Br)cc2nc3ccccc3sc-2c1Br
inactive: [4] > 100 µM | [5] 17.5 µM | [6] > 100 µM | [7] > 100 µM | [8] 17.9 µM | [9] 27.2 µM

Cc1cccc(NC2=NC(=O)C(CC(=O)Nc3ccc(Cl)cc3C)S2)c1 (centres undefined)
inactive: [4] > 100 µM | [5] > 100 µM | [6] > 100 µM | [7] > 100 µM | [8] > 100 µM

CCC(O)CCCCCCCCCCCCCCC(=O)O (centres undefined)
inactive: [4] > 100 µM | [5] > 100 µM | [6] 78.3 µM | [7] > 100 µM | [8] > 100 µM | [9] > 100 µM

CN(C)c1ccc(C(C#N)NNC(=O)Cc2ccccc2)cc1 (centres undefined)
inactive: [4] > 100 µM | [5] > 100 µM | [7] > 100 µM | [8] > 100 µM

CC1=C(c2cc(C(=O)Nc3ccc(Cl)cc3)nc(S)n2)Sc2ccccc2N1
inactive: [4] > 100 µM | [5] > 100 µM | [6] > 100 µM | [7] > 100 µM | [8] > 100 µM | [9] > 100 µM

CCN(CC)CCCNC(=O)Cc1ccccc1Nc1c(Cl)cccc1Cl
inactive: [4] 14.9 µM | [5] 4.97 µM | [7] 15 µM | [8] 13.6 µM | [9] 8.13 µM

CC(N)C(C)c1ccccc1 (centres undefined)
inactive: [4] > 100 µM | [7] > 100 µM | [8] > 100 µM | [9] > 100 µM

CN(C)/N=N/c1nc2c(c(=O)n(C)c(=O)n2C)n1CC(O)CO (centres undefined)
inactive: [1] > 100 µM | [2] 10.6 µM | [3] > 100 µM

Nc1c(-c2ccc(Cl)cc2)[n+]([O-])c2ccccc2[n+]1[O-]
inactive: [4] > 100 µM | [5] > 100 µM | [7] 88.7 µM | [8] 46.1 µM | [9] 42.7 µM

CCOC(=O)CSC1NC(C(=O)OC)CC1OC (centres undefined)
inactive: [1] > 100 µM | [2] > 100 µM | [3] > 100 µM

COc1ccc(-c2cc(-c3ccc(Nc4ccnc5cc(C(F)(F)F)ccc45)cc3)[nH]c(=O)c2C#N)cc1
inactive: [1] > 52 µM | [2] > 88.7 µM | [3] > 34.5 µM

COC(=O)C1=CC(=O)C(C(=O)Nc2ccc(OC)cc2)C(c2ccccc2)O1 (centres undefined)
inactive: [4] 37.5 µM | [6] 37.2 µM | [7] > 75.5 µM | [8] 29.7 µM

CC[N+](CC)(CC)Cc1cn(S(=O)(=O)c2ccccc2)c2ccccc12
inactive: [4] > 100 µM | [5] > 100 µM | [7] > 100 µM | [8] > 100 µM | [9] > 100 µM

Cc1cc(NS(=O)(=O)c2ccc(NC(=O)c3cccc4c(Nc5ccc(S(=O)(=O)Nc6cc(C)on6)cc5)c5ccc(Cl)cc5nc34)cc2)no1
inactive: [4] 85.1 µM | [5] 41.9 µM | [7] 63.2 µM | [8] 38.9 µM | [9] 56.6 µM

N#C[BH2-][n+]1ccc(C(=O)NNCc2cccc(C(F)(F)F)c2)cc1
inactive: [1] 14.3 µM | [2] 5.64 µM | [3] 10.2 µM

COc1ccc(NC(=S)N/N=C2\C(=O)Nc3ccccc32)cc1
inactive: [1] 4.74 µM | [2] 9.48 µM | [3] 55.6 µM

Clc1ccc(COC(Cn2ccnc2)c2ccc(Cl)cc2Cl)c(Cl)c1 (centres undefined) [MICONAZOLE]
inactive: [1] 15 µM | [2] 10.9 µM | [3] 4.8 µM
